According to the supplement of paper PMC13380429:
± gives the standard deviation of the averaged measurements.

Key:
[1] = system: A549-ACE2 infected with SARS-CoV-2; experiment: SARS-CoV-2 infection rate relative to DMSO; higher = more infection; settings: 24 h
[2] = system: A549-ACE2 infected with SARS-CoV-2; experiment: cell count relative to DMSO; higher = less toxic; settings: 24 h
Calu-3 [3] = experiment: cell viability relative to DMSO; higher = less toxic; settings: 72 h
Vero E6 [4] = experiment: as above; settings: 72 h
HepG2 [5] = experiment: as above; settings: 72 h
Caco-2 [6] = experiment: as above; settings: 72 h
U2OS [7] = experiment: as above; settings: 72 h
Calu-3 [8] = experiment: relative viability EC50 (midpoint between 100% and the lowest measured viability); higher = less toxic; settings: 72 h
[9] = system: A549-ACE2 infected with SARS-CoV-2; experiment: morphology score (similarity to uninfected cells); higher = more like uninfected cells; settings: 24 h
A549-ACE2 [10] = experiment: phospholipidosis EC50; higher = less potent phospholipidosis inducer
Calu-3 [11] = experiment: drug sensitivity score (DSS) for viability; higher = more toxic; extreme values may be limits of the assay; settings: 72 h
Vero E6 [12] = experiment: as above; settings: 72 h
HepG2 [13] = experiment: as above; settings: 72 h
Caco-2 [14] = experiment: as above; settings: 72 h
U2OS [15] = experiment: as above; settings: 72 h
A549-ACE2 [16] = experiment: drug-induced phospholipidosis relative to tamoxifen; higher = more phospholipidosis
Vero E6 [17] = experiment: relative viability EC50 (midpoint between 100% and the lowest measured viability); higher = less toxic; settings: 72 h
HepG2 [18] = experiment: as above; settings: 72 h
U2OS [19] = experiment: as above; settings: 72 h
Caco-2 [20] = experiment: as above; settings: 72 h

NC1(c2ccc(-c3nc4ccn5c(=O)[nH]nc5c4cc3-c3ccccc3)cc2)CCC1 [MK-2206]
Settings	SARS-CoV-2 infection rate [%]	cell count [%]	cell viability [%]	morphology score	phospholipidosis EC50 [µM]
A549-ACE2 [10], 24 h	–	–	–	–	3.24
A549-ACE2 [10], 48 h	–	–	–	–	3.44
Caco-2 [6], 1 nM	–	–	102	–	–
Caco-2 [6], 10 nM	–	–	95.3	–	–
Caco-2 [6], 100 nM	–	–	87.1	–	–
Caco-2 [6], 1000 nM	–	–	75	–	–
Caco-2 [6], 10000 nM	–	–	66.2	–	–
Calu-3 [3], 1 nM	–	–	104	–	–
Calu-3 [3], 10 nM	–	–	100	–	–
Calu-3 [3], 100 nM	–	–	84.1	–	–
Calu-3 [3], 1000 nM	–	–	63	–	–
Calu-3 [3], 10000 nM	–	–	38	–	–
HepG2 [5], 1 nM	–	–	95.6	–	–
HepG2 [5], 10 nM	–	–	93.7	–	–
HepG2 [5], 100 nM	–	–	84.8	–	–
HepG2 [5], 1000 nM	–	–	66.1	–	–
HepG2 [5], 10000 nM	–	–	59	–	–
U2OS [7], 1 nM	–	–	104	–	–
U2OS [7], 10 nM	–	–	103	–	–
U2OS [7], 100 nM	–	–	96.9	–	–
U2OS [7], 1000 nM	–	–	89	–	–
U2OS [7], 10000 nM	–	–	67.8	–	–
Vero E6 [4], 1 nM	–	–	94	–	–
Vero E6 [4], 10 nM	–	–	94.7	–	–
Vero E6 [4], 100 nM	–	–	93.4	–	–
Vero E6 [4], 1000 nM	–	–	81	–	–
Vero E6 [4], 10000 nM	–	–	63.2	–	–
[1], 0.1 µM	105	–	–	–	–
[1], 0.3 µM	101	–	–	–	–
[1], 1 µM	97	–	–	–	–
[1], 3 µM	29	–	–	–	–
[2], 0.1 µM	–	100	–	–	–
[2], 0.3 µM	–	99	–	–	–
[2], 1 µM	–	85	–	–	–
[2], 3 µM	–	103	–	–	–
[9], 0.1 µM	–	–	–	0.19	–
[9], 0.3 µM	–	–	–	0.27	–
[9], 1 µM	–	–	–	0.31	–
[9], 3 µM	–	–	–	0.79	–

Settings	drug sensitivity score	relative viability EC50 [µM]
Caco-2 [14]	5.4	–
Calu-3 [8]	–	0.49
Calu-3 [11]	8.7	–
HepG2 [13]	7.6	–
U2OS [15]	2.7	–
Vero E6 [12]	3.9	–

drug-induced phospholipidosis [%], A549-ACE2 [16]
Settings	0.3 µM	0.833333 µM	3.33333 µM	6.66667 µM	10 µM	30 µM
24 h	3.85	16.3	76	128	149	82.1
48 h	2.41	16.9	89	158	169	–
72 h	0.889	14.8	66.8	–	–	–

CC(C)n1nc(C#Cc2ccccc2)c2c(N)ncnc21 [SPP86]
Settings	SARS-CoV-2 infection rate [%]	cell count [%]	cell viability [%]	morphology score	phospholipidosis EC50 [µM]
A549-ACE2 [10], 24 h	–	–	–	–	15.1
Caco-2 [6], 1 nM	–	–	98.1	–	–
Caco-2 [6], 10 nM	–	–	98.9	–	–
Caco-2 [6], 100 nM	–	–	88.9	–	–
Caco-2 [6], 1000 nM	–	–	67.7	–	–
Caco-2 [6], 10000 nM	–	–	56.5	–	–
Calu-3 [3], 1 nM	–	–	107	–	–
Calu-3 [3], 10 nM	–	–	104	–	–
Calu-3 [3], 100 nM	–	–	99.7	–	–
Calu-3 [3], 1000 nM	–	–	92.7	–	–
Calu-3 [3], 10000 nM	–	–	62.8	–	–
HepG2 [5], 1 nM	–	–	102	–	–
HepG2 [5], 10 nM	–	–	106	–	–
HepG2 [5], 100 nM	–	–	103	–	–
HepG2 [5], 1000 nM	–	–	60.9	–	–
HepG2 [5], 10000 nM	–	–	34.4	–	–
U2OS [7], 1 nM	–	–	106	–	–
U2OS [7], 10 nM	–	–	109	–	–
U2OS [7], 100 nM	–	–	107	–	–
U2OS [7], 1000 nM	–	–	107	–	–
U2OS [7], 10000 nM	–	–	75.7	–	–
Vero E6 [4], 1 nM	–	–	99.7	–	–
Vero E6 [4], 10 nM	–	–	99.7	–	–
Vero E6 [4], 100 nM	–	–	100	–	–
Vero E6 [4], 1000 nM	–	–	98.5	–	–
Vero E6 [4], 10000 nM	–	–	81.3	–	–
[1], 0.3 µM	90	–	–	–	–
[1], 3 µM	89	–	–	–	–
[1], 10 µM	53	–	–	–	–
[1], 30 µM	32	–	–	–	–
[2], 0.3 µM	–	103	–	–	–
[2], 3 µM	–	103	–	–	–
[2], 10 µM	–	106	–	–	–
[2], 30 µM	–	84	–	–	–
[9], 0.3 µM	–	–	–	0.34	–
[9], 3 µM	–	–	–	0.41	–
[9], 10 µM	–	–	–	0.54	–
[9], 30 µM	–	–	–	0.29	–

Settings	drug sensitivity score	relative viability EC50 [µM]
Caco-2 [14]	6.9	–
Calu-3 [11]	3	–
HepG2 [13]	8.3	–
HepG2 [18]	–	0.858
U2OS [15]	0.6	–
U2OS [19]	–	> 10
Vero E6 [12]	0.7	–
Vero E6 [17]	–	> 10

drug-induced phospholipidosis [%], A549-ACE2 [16]
Settings	0.3 µM	0.833333 µM	3.33333 µM	6.66667 µM	10 µM	30 µM
24 h	3.29	3.69	12.6	41.4	63.6	142
48 h	3.96	2.69	12.1	21.7	35.6	–
72 h	6.41	0.816	8.31	18.5	28.1	–

C[C@H](Oc1cc(-c2cnn(C3CCNCC3)c2)cnc1N)c1c(Cl)ccc(F)c1Cl [crizotinib-(S)]
Settings	SARS-CoV-2 infection rate [%]	cell count [%]	cell viability [%]	morphology score	phospholipidosis EC50 [µM]
A549-ACE2 [10], 24 h	–	–	–	–	1.79
A549-ACE2 [10], 48 h	–	–	–	–	3.04
A549-ACE2 [10], 72 h	–	–	–	–	3.1
Caco-2 [6], 1 nM	–	–	93.9 ± 6.7	–	–
Caco-2 [6], 10 nM	–	–	95.3 ± 2.8	–	–
Caco-2 [6], 100 nM	–	–	99.2 ± 3.5	–	–
Caco-2 [6], 1000 nM	–	–	95.1 ± 1.3	–	–
Caco-2 [6], 10000 nM	–	–	62.1 ± 18	–	–
Calu-3 [3], 1 nM	–	–	97.8 ± 17	–	–
Calu-3 [3], 10 nM	–	–	96.2 ± 5.7	–	–
Calu-3 [3], 100 nM	–	–	100.3 ± 0.85	–	–
Calu-3 [3], 1000 nM	–	–	100.4 ± 0.14	–	–
Calu-3 [3], 10000 nM	–	–	40 ± 12	–	–
HepG2 [5], 1 nM	–	–	100 ± 3.8	–	–
HepG2 [5], 10 nM	–	–	108 ± 11	–	–
HepG2 [5], 100 nM	–	–	104 ± 9.6	–	–
HepG2 [5], 1000 nM	–	–	90.9 ± 14	–	–
HepG2 [5], 10000 nM	–	–	43.3 ± 20	–	–
U2OS [7], 1 nM	–	–	98.3 ± 7.7	–	–
U2OS [7], 10 nM	–	–	96.3 ± 1.8	–	–
U2OS [7], 100 nM	–	–	99.2 ± 3.8	–	–
U2OS [7], 1000 nM	–	–	96 ± 7.3	–	–
U2OS [7], 10000 nM	–	–	41.1 ± 12	–	–
Vero E6 [4], 1 nM	–	–	97.2 ± 4	–	–
Vero E6 [4], 10 nM	–	–	99.6 ± 1.6	–	–
Vero E6 [4], 100 nM	–	–	100 ± 2	–	–
Vero E6 [4], 1000 nM	–	–	97 ± 3.5	–	–
Vero E6 [4], 10000 nM	–	–	80.7 ± 19	–	–
[1], 0.1 µM	96	–	–	–	–
[1], 0.3 µM	100 ± 2.1	–	–	–	–
[1], 1 µM	94	–	–	–	–
[1], 3 µM	30 ± 8.5	–	–	–	–
[1], 10 µM	24	–	–	–	–
[1], 30 µM	82	–	–	–	–
[2], 0.1 µM	–	100	–	–	–
[2], 0.3 µM	–	102 ± 3.5	–	–	–
[2], 1 µM	–	87	–	–	–
[2], 3 µM	–	93 ± 34	–	–	–
[2], 10 µM	–	109	–	–	–
[2], 30 µM	–	18	–	–	–
[9], 0.1 µM	–	–	–	0.15	–
[9], 0.3 µM	–	–	–	0.025 ± 0.064	–
[9], 1 µM	–	–	–	0.27	–
[9], 3 µM	–	–	–	0.71 ± 0.16	–
[9], 10 µM	–	–	–	0.36	–
[9], 30 µM	–	–	–	-0.08	–

Settings	drug sensitivity score	relative viability EC50 [µM]
Caco-2 [14]	2.6 ± 1.4	–
Calu-3 [8]	–	3.21
Calu-3 [11]	3.2 ± 0.71	–
HepG2 [13]	4.45 ± 3.5	–
HepG2 [18]	–	2.22
U2OS [15]	3.9 ± 2	–
U2OS [19]	–	2.61
Vero E6 [12]	0.8 ± 1.1	–

drug-induced phospholipidosis [%], A549-ACE2 [16]
Settings	0.3 µM	0.833333 µM	3.33333 µM	6.66667 µM	10 µM	30 µM
24 h	8.27 ± 0.43	14.6 ± 0.59	93.6 ± 52	107 ± 44	67.9	67.2 ± 8.9
48 h	6.57 ± 1.7	10.9 ± 1.5	65	95.4	72.5	79.1
72 h	6.4 ± 2	9.01 ± 3.9	64.9	97.9	71.4	94.9

Cc1ccc(-n2nc(C(C)(C)C)cc2NC(=O)Nc2ccc(OCCN3CCOCC3)c3ccccc23)cc1 [doramapimod]
Settings	SARS-CoV-2 infection rate, [1] [%]	cell count, [2] [%]	cell viability, Caco-2 [6] [%]	cell viability, Calu-3 [3] [%]	cell viability, HepG2 [5] [%]	cell viability, U2OS [7] [%]	cell viability, Vero E6 [4] [%]	morphology score, [9]
1 nM	–	–	93.8	114	107	98.6	108	–
10 nM	–	–	108	97.3	105	104	95.2	–
100 nM	–	–	89.3	92.4	99.7	91.6	95.5	–
0.3 µM	105	91	–	–	–	–	–	-0.27
1000 nM	–	–	90.9	97.2	104	93.7	95.7	–
3 µM	68	105	–	–	–	–	–	0.36
10 µM	72	115	–	–	–	–	–	0.7
10000 nM	–	–	93.6	88.4	111	95.6	104	–
30 µM	16	70	–	–	–	–	–	0.44

Settings	drug sensitivity score	relative viability EC50 [µM]
Caco-2 [14]	0.3	–
Caco-2 [20]	–	> 10
Calu-3 [8]	–	> 10
Calu-3 [11]	0	–
HepG2 [13]	0	–
HepG2 [18]	–	> 10
U2OS [15]	0	–
U2OS [19]	–	> 10
Vero E6 [12]	0	–
Vero E6 [17]	–	> 10

drug-induced phospholipidosis [%], A549-ACE2 [16]
Settings	0.3 µM	0.833333 µM	3.33333 µM	6.66667 µM	10 µM	30 µM
24 h	-1.22	-3.86	-2.5	7.51	20.8	66.3
48 h	-2.88	-4.62	-1.1	6.99	15.5	–
72 h	-1.89	-3.86	1.71	12.1	19.8	–
